For test [1], the system named is Endogenous Arginine Vasopressin Antidiuretic (V2) Response in Conscious Rats. Kind of test: Antagonism of Endogenous Arginine Vasopressin Antidiuretic (V2) Response in Conscious Rats (urine volume). The test is classed as in vivo, rat (Sprague-Dawley). Conditions: 10 mg/kg rat p.o.; 4 hour collection. The source says:
Effects on the Antagonism of Endogenous Arginine Vasopressin Antidiuretic (V2) Response in Conscious Rats with Free Access to Water Drinking Before but not During the Experiment:
Male or female normotensive Sprague-Dawley rats (Charles River Laboratories, Inc., Kingston, N.Y.) of 400-450 g body weight were supplied with Laboratory Rodent Feed #5001 (PMI Feeds, Inc., Richmond, Id.) and water ad libitum. On the day of test, rats were placed individually into metabolic cages equipped with stainless steel screens (to separate the feces from the urine) and funnels for collection of urine. Vehicle or reference agent was given at various oral doses. During the test, rats were not provided with water or food. Urine was collected for four hours after dosing of the test compound. At the end of four hours, urine volume was measured. Urinary osmolality was determined using a Fiske One-Ten Osmometer (Fiske Associates, Norwood, Mass. 02062) or an Advanced CRYOMATIC Osmometer, Model 3C2 (Advanced Instruments, Norwood, Mass.). Determinations of Na^+, K^+ and Cl^- ion were carried out using ion specific electrodes in a Beckman SYNCHRON EL-ISE Electrolyte System analyzer. In the following results, increased urine volume and decreased osmolality relative to AVP-control indicates activity.

Test [2] addresses T1, oxytocin receptors (Rattus norvegicus, UniProt P70536).
T1 sequence (P70536 1-388): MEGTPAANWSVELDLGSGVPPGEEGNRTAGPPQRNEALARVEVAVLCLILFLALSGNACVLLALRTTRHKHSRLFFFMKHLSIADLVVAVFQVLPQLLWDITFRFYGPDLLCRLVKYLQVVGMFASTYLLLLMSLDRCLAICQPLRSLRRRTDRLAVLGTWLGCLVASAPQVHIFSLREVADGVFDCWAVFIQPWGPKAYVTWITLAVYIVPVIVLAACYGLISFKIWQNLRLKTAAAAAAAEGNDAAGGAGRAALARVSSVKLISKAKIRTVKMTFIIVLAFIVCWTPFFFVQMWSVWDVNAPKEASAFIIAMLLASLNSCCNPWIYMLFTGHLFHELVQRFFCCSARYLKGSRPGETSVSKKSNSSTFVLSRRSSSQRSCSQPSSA
Kind of test: Oxytocin Receptor Binding. The conditions noted are these: for pIC50: rat uterine membranes, [3H]oxytocin.

Test [3] has as its target Rat Hepatic V1 Receptors (Rattus norvegicus, UniProt P30560). Kind of test: Binding Assay to Rat Hepatic V1 Receptors. As to the method: Binding Assay to Rat Hepatic V1 Receptors
Rat liver plasma membranes expressing the vasopressin V1 receptor subtypes are isolated by sucrose density gradient according to the method described by Lesko et al, (1973). These membranes are quickly suspended in 50.0 mM Tris.HCl buffer, pH 7.4, containing 0.2% bovine serum albumin (BSA) and 0.1 mM phenylmethylsulfonylfluoride (PMSF) and kept frozen at -70° C. until used in subsequent binding experiments. For binding experiments, the following is added to the wells of a ninety-six well format microtiter plate: 100 μl of 100.0 mM Tris.HCl buffer containing 10.0 mM MgCl2, 0.2% heat inactivated BSA and a mixture of protease inhibitors: leupeptin, 1.0 mg %; aprotinin, 1.0 mg %; 1,10-phenanthroline,2.0 mg %; trypsin inhibitor, 10.0 mg % and 0.1 mM PMSF, 20.0 μl of [phenylalanyl-3,4,5,-^3 H] vaso-pressin (S.A. 45.1 Ci/mmole) at 0.8 nM, and the reaction initiated by the addition of 80 μl of tissue membranes containing 20 μg of tissue protein. The plates are kept undisturbed on the bench top at room temperature for 120 min. to reach equilibrium. Non-specific samples are assayed in the presence of 0.1 μm of the unlabeled antagonist phenylalanylvasopressin, added in 20.0 μl volume. For test compounds, these are solubilized in 50% dimethylsulfoxide (DMSO) and added in 20.0 μl volume to a final incubation volume of 200 μl. Upon completion of binding, the content of each well is filtered off, using a Brandel® cell Harvester (Gaithersburg, Md.). The radioactivity trapped on the filter disk by the ligand-receptor complex is assessed by liquid scintillation counting in a Packard LS Counter, with an efficiency of 65% for tritium. The data are analyzed for IC50 values by the LUNDON-2 program for competition (LUNDON SOFTWARE, Ohio).

The target of test [4] is T2, Rat Kidney Medullary V2 Receptors (Rattus norvegicus, UniProt Q00788).
T2 construct: Medullary tissues from rat kidneys are dissected out; from tissue; host or cells: rat kidney medulla membranes
The test is described as follows: biochemical. The test is classed as binding. As for the experimental part:
Binding Assay to Rat Kidney Medullary V2 Receptors
Medullary tissues from rat kidneys are dissected out, cut into small pieces and soaked in a […] sodium chloride solution containing 1.0 mM EDTA with many changes of the liquid phase, until the solution is clear of blood. The tissue is homogenized in a 0.25M sucrose solution containing 1.0 mM EDTA and 0.1 mM PMSF using a Potter-Elvehjem homogenizer with a teflon pestle. The homogenate is filtered through several layers (4 layers) of cheese cloth. The filtrate is rehomogenized using a dounce homogenizer, with a tight fitting pestle. The final homogenate is centrifuged at 1500×g for 15 min. The nuclear pellet is discarded and the supernatant fluid recentrifuged at 40,000×g for 30 min. The resulting pellet formed contains a dark inner part with the exterior, slightly pink. The pink outer part is suspended in a small amount of 50.0 mM Tris.HCl buffer, pH 7.4. The protein content is determined by the Lowry's method (Lowry et al, J. Biol. Chem., 1953). The membrane suspension is stored at -70° C., in 50.0 mM Tris.HCl, containing 0.2% inactivated BSA and 0.1 mM PMSF in aliquots of 1.0 ml containing 10.0 mg protein per ml of suspension until use in subsequent binding experiments.
For binding experiments, the following is added in μl volume to wells of a 96 well format of a microtiter plate: 100.0 μl of 100.0 mM Tris.HCl buffer containing 0.2% heat inactivated BSA, 10.0 mM MgCl2 and a mixture of protease inhibitors: leupeptin, 1.0 mg %; aprotinin, 1.0 mg %; 1,10-phenanthroline, 2.0 mg %; trypsin inhibitor, 10.0 mg % and 0.1 mM PMSF, 20.0 μl of [^3 H] Arginine^8, vasopressin (S.A. 75.0 Ci/mmole) at 0.8 nM and the reaction initiated by the addition of 80.0 μl of tissue membranes (200.0 μg tissue protein). The plates are left undisturbed on the bench top for 120 min. to reach equilibrium. Non-specific binding is assessed in the presence of 1.0 μM of unlabeled ligand, added in 20 μl volume. For test compounds, these are solubilized in 50% dimethylsulfoxide (DMSO) and added in 20.0 μl volume to a final incubation volume of 200 μl. Upon completion of binding, the content of each well is filtered off, using a Brandel® cell Harvester (Gaithersburg, Md.). The radioactivity trapped on the filter disk by the ligand-receptor complex is assessed by liquid scintillation counting in a Packard LS Counter, with an efficiency of 65% for tritium. The data are analyzed for IC50 values by the LUNDON-2 program for competition (LUNDON SOFTWARE, Ohio).

pIC50: −log10 of the molar value.

Sequence of Rat Hepatic V1 Receptors (P30560 whole entry): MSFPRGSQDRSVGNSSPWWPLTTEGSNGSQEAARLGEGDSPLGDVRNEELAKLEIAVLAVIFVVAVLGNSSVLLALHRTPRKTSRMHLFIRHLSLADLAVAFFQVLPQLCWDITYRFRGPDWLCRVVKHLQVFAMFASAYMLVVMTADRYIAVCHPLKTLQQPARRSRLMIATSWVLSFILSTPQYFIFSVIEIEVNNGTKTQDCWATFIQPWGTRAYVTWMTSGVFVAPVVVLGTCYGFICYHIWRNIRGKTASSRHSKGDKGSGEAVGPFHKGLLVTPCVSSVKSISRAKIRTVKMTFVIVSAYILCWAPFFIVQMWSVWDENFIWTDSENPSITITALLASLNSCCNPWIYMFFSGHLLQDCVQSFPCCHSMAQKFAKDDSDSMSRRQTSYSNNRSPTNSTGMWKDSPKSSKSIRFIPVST
T2 sequence (Q00788 whole entry): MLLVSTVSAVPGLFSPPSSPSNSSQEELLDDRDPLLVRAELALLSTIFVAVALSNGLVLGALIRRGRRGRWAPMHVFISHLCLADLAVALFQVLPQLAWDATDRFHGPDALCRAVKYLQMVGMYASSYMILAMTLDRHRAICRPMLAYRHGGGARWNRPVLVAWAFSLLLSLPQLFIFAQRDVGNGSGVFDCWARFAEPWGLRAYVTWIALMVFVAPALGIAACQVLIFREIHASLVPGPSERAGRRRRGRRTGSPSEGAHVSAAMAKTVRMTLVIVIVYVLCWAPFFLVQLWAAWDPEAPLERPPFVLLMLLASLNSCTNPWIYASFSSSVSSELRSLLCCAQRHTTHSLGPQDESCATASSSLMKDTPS

`O=C(Nc1ccc(C(=O)N2Cc3ccc(CNC(CO)(CO)CO)n3Cc3ccccc32)c(Cl)c1)c1ccccc1-c1ccccc1` [Example 374, (3-Chloro-4-{3-[(2-hydroxy-1,1-bis-hydroxymethylethylamino)-methyl]-5H,11H-pyrrolo[2,1-c][1,4]benzodiazepine-10-carbonyl}-phenyl)-biphenyl-2-carboxylic acid amide]: the “Urine Volume” value in test [1] worked out at 16.5 ml/4 hrs.

In the case of `CN(C)CCN(C)Cc1ccc2n1Cc1ccccc1N(C(=O)c1ccc(NC(=O)c3ccccc3-c3ccccc3)cc1Cl)C2` [Example 375], the “Urine Volume” value in test [1] was 44.2 ml/4 hrs.

On to `CN(C)C1CCN(Cc2ccc3n2Cc2ccccc2N(C(=O)c2ccc(NC(=O)c4ccccc4-c4ccccc4)cc2Cl)C3)CC1` [Example 376, {3-chloro-4-[3-(4-dimethylamino-piperidine-1-ylmethyl)-5H,11H-pyrrolo[2,1-c][1,4]benzodiazepine-10-carbonyl]-phenyl}-biphenyl-2-carboxylic acid amide], for which the “Urine Volume” value in test [1] is given as 23.8 ml/4 hrs.

Usually inhibition stands for the drop in the measured response relative to a control, in per cent. A high value points to a response far below the control. For orientation: pIC50 means the negative decadic logarithm of the IC50, by convention in mol/L. A higher pIC50 goes with a small IC50. In test [2], `Cc1ncccc1C(=O)Nc1ccc(C(=O)N2Cc3cccn3Cc3ccccc32)cc1` [Example 327, N-[4-(5H-Pyrrolo[2,1-c][1,4]benzodiazepin-10(11H)-ylcarbonyl)phenyl]-2-methylpyridine-3-carboxamide] had an inhibition at 1 µM of 56%. Moreover, the pIC50 was 6.46 in test [3] and 7.55 in test [4].

In the case of `O=C(c1ccc(NCc2ccccc2)nc1)N1Cc2cccn2Cc2ccccc21` [Example 273, 10[[6-[(Phenylmethyl)amino]-3-pyridinyl]carbonyl]-10,11-dihydro-5H-pyrrolo[2,1-c][1,4]benzodiazepine], testing at 2.5 µM in test [2] (dose 2.5 μM) gave an inhibition of 95%. Besides, the values for the negative-log IC50 (pIC50) in test [2], in test [3] and in test [4] were 7.25, 6.72 and 7.09, respectively.

In the case of `O=C(Nc1ccc(C(=O)N2Cc3ccc(CN4CCC(N5CCCCC5)CC4)n3Cc3ccccc32)c(Cl)c1)c1ccccc1-c1ccccc1` [Example 373, [4-(3-[1,4]Bipiperidinyl-1'-ylmethyl-5H,11H-pyrrolo[2,1-c][1,4]benzodiazepine-10-carbonyl)-3-chloro-phenyl]-biphenyl-2-carboxylic acid amide], the “Urine Volume” value in test [1] stood at 15.6 ml/4 hrs.

For `O=C(Nc1ccc(C(=O)N2Cc3cccn3Cc3ccccc32)cc1)c1cccnc1Cl` [Example 333, N-[4-(5H-Pyrrolo[2,1-c][1,4]benzodiazepin-10(11H)-ylcarbonyl)phenyl]-2-chloropyridine-3-carboxamide], in test [2], the inhibition at 10 µM was found to be 98%. Further, the negative-log IC50 (pIC50) in test [2] is 6.06; in test [3], 6.60; in test [4] it was 6.39.

Regarding `O=C(Nc1ccc(C(=O)N2Cc3cccn3Cc3ccccc32)cc1)c1ccccc1-c1ccc(C(F)(F)F)cc1` [Example 324], the inhibition at 1 µM in test [2] turned out to be 45%. Also, the pIC50 is 6.38 in test [3] and 6.92 in test [4].

On to `O=C(c1ccc(NCc2ccccc2Br)nc1)N1Cc2cccn2Cc2ccccc21` [Example 352], for which testing at 1.25 µM in test [2] (dose 1.25 μM) gave an inhibition of 96%. Also, the negative logarithm of the IC50 (pIC50) in test [2] is 6.98; in test [3], 7.06; in test [4], 7.23.

Regarding `CC(C)(C)Nc1ccc(C(=O)N2Cc3cccn3Cc3ccccc32)cn1` [Example 348], in test [2], 10 µM produced 95% inhibition and the pIC50 was 6.15. This molecule also had a pIC50 in test [3] of 7.10. For the same molecule, at 1 µM the inhibition in test [4] (at 1 μM) was 43%.

In test [2], `O=C(Nc1ccc(C(=O)N2Cc3cccn3Cc3ccccc32)cc1)c1ccccc1-c1ccccn1` [Example 341, N-[4-(5H-Pyrrolo[2,1-c][1,4]benzodiazepin-10(11H)-ylcarbonyl)phenyl]-2-(2-pyridinyl)benzamide] came in with an inhibition at 1 µM of 74%. Also, the pIC50 is 7.70 in test [3] and 8.40 in test [4].

In test [2], `CC(C)(Oc1ccc(Cl)cc1)C(=O)Nc1ccc(C(=O)N2Cc3cccn3Cc3ccccc32)cc1` [Example 347, N-[4-(5H-Pyrrolo[2,1-c][1,4]benzodiazepin-10(11H)-ylcarbonyl)phenyl]-2-methyl-2-(4-chlorophenyloxy)propionamide] yielded an inhibition at 10 µM of 86%. Further, the negative logarithm of the IC50 (pIC50) is 6.74 in test [3] and 6.38 in test [4].
